In patent US6803371B2, “Purine inhibitors of protein kinases, G proteins and polymerases” (The Regents of the University of California, priority 1997, dated 2004) one finds IC50 data, which are given here for 23 compounds.

pIC50: −log10 of the molar value.

In the first assay the target is erk1 (Homo sapiens, UniProt P27361). Kind of assay: erk1 kinase inhibition. Type of assay: biochemical. The conditions noted are these: read-out: IC50 (additional kinases) erk1.
Sequence of erk1 (P27361 whole entry, species assumed): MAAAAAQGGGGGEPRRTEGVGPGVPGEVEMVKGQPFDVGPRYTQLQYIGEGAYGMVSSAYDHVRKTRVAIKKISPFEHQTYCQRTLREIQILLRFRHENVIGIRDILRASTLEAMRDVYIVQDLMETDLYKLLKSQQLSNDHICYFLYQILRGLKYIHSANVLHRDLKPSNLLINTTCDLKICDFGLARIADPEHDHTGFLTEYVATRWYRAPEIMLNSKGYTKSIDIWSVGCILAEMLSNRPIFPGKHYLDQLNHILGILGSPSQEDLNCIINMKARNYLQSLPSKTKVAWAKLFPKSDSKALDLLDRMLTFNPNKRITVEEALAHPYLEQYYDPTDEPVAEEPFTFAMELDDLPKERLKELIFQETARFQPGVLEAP
On to `COc1ccc(CNc2nc(N(CC(C)O)CC(C)O)nc3c2ncn3C(C)C)cc1` (stereo not shown) [NG-16], for which the negative logarithm of the IC50 (pIC50) – broadly, −log10 of the IC50, conventionally taken in molar units – was 4.30. Take `COc1ccc(CNc2nc(N[C@@H](CO)CC(C)C)nc3c2ncn3C(C)C)cc1` [NG-36]: the pIC50 is less than 5.00. On the same count and under the same terms, for `CC[C@H](CO)Nc1nc(NCc2ccc(OC)cc2)c2ncn(C(C)C)c2n1` [NG-33] the value was less than 5.00.

The target in another assay is cdc2/cyclinB. Kind of assay: cdc2/cyclinB kinase inhibition. It is filed as biochemical.
Conditions: not given
For the compound `COc1ccc(CNc2nc(N(CC(C)O)CC(C)O)nc3c2ncn3C(C)C)cc1` (stereo not shown) [NG-16], the pIC50 is 6.62. On the same count and under the same terms, the same measure for `CC(C)[C@H](CO)Nc1nc(Nc2ccc(Cl)c(N)c2)c2ncn(C(C)C)c2n1` [NG-98]: 7.52; for `CC(C)n1cnc2c(Nc3cccc(Cl)c3)nc(NCCO)nc21` [NG-52]: 6.66; for `COc1ccc(CNc2nc(N(CCO)Cc3ccccc3)nc3c2ncn3C(C)C)cc1` [NG-49]: 5.55. For `CC(C)n1cnc2c(Nc3cccc(Cl)c3)nc(N[C@H](CO)c3ccccc3)nc21` [NG-59], the pIC50 was 6.10. The same measure, in the same setting: for `COc1ccc(CNc2nc(N[C@@H](CO)CC(C)C)nc3c2ncn3C(C)C)cc1` [NG-36] the value was 7.00; for `CC(C)[C@H](CO)Nc1nc(Nc2ccc(O)c(C(=O)O)c2)c2ncn(C(C)C)c2n1` [NG-94], approximately 7.00.

Turning to `CC(C)n1cnc2c(Nc3ccccc3Cl)nc(NCCO)nc21` [NG-43], the pIC50 was 5.37. In the case of `CC(C)n1cnc2c(Nc3cccc(Cl)c3)nc(N[C@H](CO)C(C)(C)C)nc21` [NG-61], the pIC50 is 5.64. Same read-out and setting: the same measure for `CC(C)n1cnc2c(Nc3cccc(F)c3)nc(NCCO)nc21` [NG-65]: 6.40. On to `CC(C)n1cnc2c(Nc3ccc(Cl)cc3Cl)nc(NCCO)nc21` [NG-54], for which the pIC50 was 5.57.

`CC(C)n1cnc2c(Nc3ccccc3)nc(NCCO)nc21` [NG-42] showed a pIC50 of 5.37. Same read-out and setting: for `COc1ccc(CNc2nc(NCC(O)c3ccccc3)nc3c2ncn3C(C)C)cc1` (stereo not shown) [NG-50] the value was 5.55; for `CC(C)n1cnc2c(Nc3cccc(C(F)(F)F)c3)nc(NCCO)nc21` [NG-51], 6.38; for `CC(C)[C@H](CO)Nc1nc(Nc2ccc(Cl)c(C(=O)O)c2)c2ncn(C(C)C)c2n1` [NG-96], approximately 7.52.

As for `CC(C)n1cnc2c(Nc3ccc4ccccc4c3)nc(NCCO)nc21` [NG-47], the pIC50 was 6.37. Same read-out and setting: for `CC(C)C(CO)Nc1nc(Nc2cc(Cl)cc(Cl)c2)c2ncn(C(C)C)c2n1` (stereo not shown) [NG-57] the value was 6.40. Turning to `CC(C)[C@H](CO)Nc1nc(Nc2cc(N)cc(Cl)c2)c2ncn(C(C)C)c2n1` [NG-97], the pIC50 was 7.52.

In turn, `CC(C)n1cnc2c(Nc3ccccc3C(F)(F)F)nc(NCCO)nc21` [NG-53] showed a pIC50 of 5.00.

Consider `CCC(C)[C@@H](CO)Nc1nc(Nc2cccc(Cl)c2)c2ncn(C(C)C)c2n1` (stereo partly shown) [NG-62], for which the pIC50 was 6.30. `CC(C)n1cnc2c(Nc3cccc(Br)c3)nc(NCCO)nc21` [NG-45] had a pIC50 of 6.57. On the same count and under the same terms, for `COc1ccccc1Nc1nc(NCCO)nc2c1ncn2C(C)C` [NG-46] the value was 5.05.
